Data as given in ChEMBL document CHEMBL3301361, “Experimental in vitro DMPK and physicochemical data on a set of publicly disclosed compounds”.
Converted amounts (≈) assume the structure as drawn.

Assays:
physchem [1] = details: octan-1-ol/water, pH 7.4, LogD7.4
physchem [2] = details: pH 7.4 buffer

Row | Structure (SMILES) | logD (physchem [1]) | solubility thermodynamic (physchem [2]) [µM]
1 | C[C@@H]1CN(c2nc(N3CCOCC3)c3ccc(Nc4ccccc4)nc3n2)C[C@H](C)O1 | 4.12 | 1.4 (≈ 0.589 µg/mL)
2 | CC(C)Cn1cnc(-c2ccccc2)c1-c1nc2c(N)ncnc2s1 | 3.72 | 70.8 (≈ 24.8 µg/mL)
3 | O=C(O)CC(=O)N[C@@H]1c2ccccc2C[C@H]1NC(=O)c1cc2sc(Cl)c(Cl)c2[nH]1 | 1.18 | 1170 (≈ 531 µg/mL)
4 | O=C(NCCNC(=O)c1cn(-c2ccccc2)nc1C(F)(F)F)c1ccc(Cl)cn1 | 3.8 | 3.4 (≈ 1.49 µg/mL)
5 | CCc1ccc(NC(=O)c2ccc3cc(C(=N)N)ccc3c2)cc1 | 1.1 | 8.5 (≈ 2.7 µg/mL)
6 | Cn1c2ccccc2c2cc(NC(=O)CCc3ccncc3)ccc21 | 3.8 | 11 (≈ 3.62 µg/mL)
7 | CS(=O)(=O)c1cccc(Nc2nccc(Nc3c(Cl)ccc4ccoc34)n2)c1 | 3.7 | 11.5 (≈ 4.77 µg/mL)
8 | COc1ccc(Cl)cc1NC(=O)Nc1cnccn1 | 3.63 | 0.7 (≈ 0.195 µg/mL)
9 | CCCc1c(C(=O)Nc2ccc(F)cc2C)cnn1-c1ccccc1 | 3.89 | 3.1 (≈ 1.05 µg/mL)
10 | c1ccc(Nc2cc(Nc3ccccc3)[nH]n2)cc1 | 3.8 | 12.6 (≈ 3.15 µg/mL)
11 | O=C(NC1CCCC1)C(c1ccncc1)N(Cc1ccco1)C(=O)c1ccc(-c2ccccc2)[nH]1 (stereo not drawn) | 4.36 | 3.5 (≈ 1.64 µg/mL)
12 | CNC(=O)c1ccc2c(=O)cc(-c3cccnc3)[nH]c2c1 | 1.01 | 309 (≈ 86.3 µg/mL)
13 | O=C(NCCCCc1ccccc1)c1ccccc1 | 3.8 | 52.5 (≈ 13.3 µg/mL)
14 | N#Cc1cnn(-c2ccccc2)c1NC(=O)CN1CCOCC1 | 0.5 | 1020 (≈ 319 µg/mL)
15 | CC1(C)C(=O)N(c2ccc(SC(F)(F)F)cc2)C(=O)N1Cc1ccnc(N2CCOCC2)c1 | 3.73 | 3 (≈ 1.44 µg/mL)
16 | Cc1ccc(CO)cc1N(C)c1ccnc(Nc2cc(N3CCCC3)cc(N3CCOCC3)c2)n1 | 3.8 | 11.5 (≈ 5.46 µg/mL)
17 | COc1cc(Nc2nccc(N(C)c3cc(CO)ccc3C)n2)cc(N2CCOCC2)c1 | 3.9 | 56.2 (≈ 24.5 µg/mL)
18 | CCN(c1ccnc(Nc2cc(N3CCOCC3)cc(N3CCOCC3)c2)n1)c1cc(CO)ccc1C | 3.8 | 72.4 (≈ 36.5 µg/mL)
19 | CSCCC(NC(=O)c1sccc1Cl)c1nc2ccccc2[nH]1 (stereo not drawn) | 3.69 | 25.7 (≈ 9.4 µg/mL)
20 | O=CN(O)C1(CS(=O)(=O)N2CCN(c3ccc(F)cc3)CC2)CCOCC1 | 0.85 | 1380 (≈ 554 µg/mL)
21 | COc1cc(N2CCN(C(C)=O)CC2)ccc1Nc1ncc(C(F)(F)F)c(-c2cnc3ccccn23)n1 | 3.7 | 8.9 (≈ 4.55 µg/mL)
22 | O=C(Nc1ccccc1)c1ccc(OCCCN2CCCC2)cc1OCc1ccccc1F | 3.85 | 141 (≈ 63.4 µg/mL)
23 | O=C(Nc1ccccc1)c1ccc(OCCCN2CCCC2)cc1OCc1cccc(F)c1 | 3.67 | 44.7 (≈ 20 µg/mL)
24 | COc1ccc(C(=O)Nc2cccc(NC(=O)c3cccc(N(C)C)c3)c2)cc1OC | 3.67 | 1.4 (≈ 0.587 µg/mL)
25 | Cc1ccc(S(=O)(=O)Nc2c(C(=O)NC3CCCCC3)cnn2-c2ccccc2)cc1 | 0.8 | 490 (≈ 215 µg/mL)
26 | Cc1c(Oc2ccc(S(C)(=O)=O)cc2F)ncnc1OC1CCN(C(=O)OC(C)C)CC1 | 3.7 | 3 (≈ 1.4 µg/mL)
27 | CCn1cc(NC(=O)Cc2ccc(Oc3ccnc4cc(F)ccc34)cc2OC)cn1 | 3.93 | 2 (≈ 0.841 µg/mL)

Row | Structure (SMILES) | logD (physchem [1]) | solubility thermodynamic (physchem [2]) [µM]
28 | COc1ccc2c(Oc3ccc(CC(=O)Nc4n[nH]c(C)c4C)c(OC)c3)ccnc2c1 | 3.78 | 8.3 (≈ 3.59 µg/mL)
29 | CNc1cccc(CCOc2ccc(C[C@H](NC(=O)c3ccccc3Cl)C(=O)O)cc2)n1 | -0.31 | 398 (≈ 181 µg/mL)
30 | CNc1cccc(CCOc2ccc(C[C@H](NC(=O)c3c(F)cccc3Cl)C(=O)O)cc2)n1 | -0.42 | 1230 (≈ 581 µg/mL)
31 | CNc1cccc(CCOc2ccc(C[C@H](NC(=O)c3c(Cl)cccc3Cl)C(=O)O)cc2)n1 | -0.15 | 1510 (≈ 739 µg/mL)
32 | CNc1cccc(CCCc2ccc(C[C@H](NC(=O)c3c(Cl)cccc3Cl)C(=O)O)cc2)n1 | 0.57 | 1510 (≈ 736 µg/mL)
33 | CNc1cccc(CCCc2ccc(C[C@H](NC(=O)c3c(Cl)cccc3Cl)C(=O)O)s2)n1 | 0.78 | 331 (≈ 163 µg/mL)
34 | O=C(N[C@@H](Cc1ccc(OCCc2ccc3c(n2)NCCC3)cc1)C(=O)O)c1c(Cl)cccc1Cl | 0.33 | 107 (≈ 55.1 µg/mL)
35 | O=C(N[C@@H](Cc1ccc(OCCNc2nc3ccccc3[nH]2)cc1)C(=O)O)c1c(Cl)cccc1Cl | 0.6 | 324 (≈ 166 µg/mL)
36 | O=C(Nc1ccc(N2CCOCC2)cc1)c1nnc(NC(=O)C2(c3ccc(Cl)cc3)CCCC2)o1 | 3.72 | 8.7 (≈ 4.31 µg/mL)
37 | O=C(Nc1nnc(C(=O)Nc2ccc(N3CCOCC3)cc2)o1)c1ccccc1 | 1.02 | 105 (≈ 41.2 µg/mL)
38 | CCCc1cc(Nc2nc(NCc3cc(C)no3)ncc2Br)n[nH]1 | 3.63 | 2.7 (≈ 1.06 µg/mL)
39 | O=c1oc(-c2ccccc2)cc2ccccc12 | 3.84 | 11.5 (≈ 2.56 µg/mL)
40 | CCn1c(-c2nonc2N)nc2c(C#CC(C)(C)O)ncc(OCC3CCCNC3)c21 (stereo not drawn) | 0.6 | 135 (≈ 57.4 µg/mL)
41 | O=S(=O)(Cc1c(F)cccc1F)N1CCN(c2ncccc2C(F)(F)F)CC1 | 3.9 | 2 (≈ 0.843 µg/mL)
42 | Cc1nc(C)c(-c2ccc([C@H]3CC[C@@H](CC(=O)O)CC3)c(F)c2)nc1C(N)=O | 1.2 | 759 (≈ 292 µg/mL)
43 | Cc1ncc(C(N)=O)nc1-c1ccc([C@H]2CC[C@H](C(=O)O)CC2)cc1 | 0.22 | 1230 (≈ 418 µg/mL)
44 | Cc1ncc(-c2ccc([C@H]3CC[C@H](CC(=O)O)CC3)cc2)nc1C(N)=O | 1 | 372 (≈ 131 µg/mL)
45 | CN1CC(n2nccc2-c2cc(Cl)ccc2Oc2cc(F)c(S(=O)(=O)Nc3ncns3)cc2F)C1 | 1 | 47.9 (≈ 25.8 µg/mL)
46 | CS(=O)(=O)C1(c2cc(N3CCOCC3)nc(-c3cccc4[nH]ccc34)n2)CCNCC1 | 0.7 | 234 (≈ 104 µg/mL)
47 | O=C(CO)N1CCC[C@@H]1COc1cccc2ncnc(Nc3ccc(OCc4ccccn4)c(Cl)c3)c12 | 3.71 | 2.2 (≈ 1.14 µg/mL)
48 | CC(C)(C)Cn1c(CN2C(=O)CC3(CCNCC3)C2=O)cc2cnc(C#N)nc21 | 0.75 | 575 (≈ 227 µg/mL)
49 | Cc1ccc(Oc2ccc(Nc3ncnc4cccc(O[C@H](C)C(=O)N(C)CCO)c34)cc2C)cn1 | 3.85 | 63.1 (≈ 30.8 µg/mL)
50 | Cn1sc(NCc2ccccc2)nc1=O | 1.2 | 1510 (≈ 335 µg/mL)
51 | COc1cccc(-c2c[nH]c(-c3ccccc3)n2)c1 | 3.8 | 36.3 (≈ 9.09 µg/mL)
52 | COc1cc2ncnc(Nc3ccc(F)c(Cl)c3)c2cc1OC | 3.67 | 7.2 (≈ 2.4 µg/mL)
53 | Cc1ccc(-c2nn(C(C)(C)C)c3ncnc(N)c23)cc1 | 4.1 | 9.8 (≈ 2.76 µg/mL)
54 | CCn1c2ccccc2c2cc(NC(=O)CCc3ccncc3)ccc21 | 3.75 | 2 (≈ 0.687 µg/mL)

Row | Structure (SMILES) | logD (physchem [1]) | solubility thermodynamic (physchem [2]) [µM]
55 | c1ccc(-c2c[nH]c(-c3ccccc3)n2)cc1 | 3.8 | 151 (≈ 33.3 µg/mL)
56 | O=c1[nH][nH]c(=O)c2c1[nH]c1cc(Cl)cc(Cl)c12 | 1.02 | 57.5 (≈ 15.5 µg/mL)
57 | Cc1c(CCC(=O)O)c[nH]c1/C=C1\C(=O)Nc2ccccc21 | 1.05 | 209 (≈ 61.9 µg/mL)
58 | Cn1c(=O)c2[nH]c(-c3cccnc3)nc2n(C)c1=O | 0.7 | 219 (≈ 56.3 µg/mL)
59 | Cc1cc(C)cc(-c2[nH]c3sc(C(C)(C)C(=O)N4C5CCC4CC5)cc3c2CCN2CCN(CC(=O)N(C)C)CC2)c1 | 4.13 | 100 (≈ 59 µg/mL)
60 | Cc1ccc(Oc2ccc(Nc3ncnc4cccc(O[C@H](C)C(=O)N5CCOCC5)c34)cc2C)cn1 | 4.14 | 7.6 (≈ 3.8 µg/mL)
61 | O=C(CO)N1CCC[C@H]1COc1cccc2ncnc(Nc3ccc(OCc4ccccn4)c(Cl)c3)c12 | 3.62 | 1.9 (≈ 0.988 µg/mL)
62 | C[C@@H](Oc1cccc2ncnc(Nc3ccc(OCc4ccccn4)c(Cl)c3)c12)C(=O)N(C)C | 3.67 | 6.2 (≈ 2.96 µg/mL)
63 | Oc1ccc(-c2nc3ccc(O)cc3s2)cc1 | 3.65 | 27.5 (≈ 6.69 µg/mL)
64 | CCn1c(=O)ccc2cc(COc3cc(F)cc(C4(OC)CCOCC4)c3)ccc21 | 3.89 | 1.7 (≈ 0.7 µg/mL)
65 | CCn1c2nc(=O)n(C)c(=O)c-2cc2ccccc21 | 1.1 | 324 (≈ 82.6 µg/mL)
66 | Cc1ncc(-c2ccnc(Nc3ccc(F)cc3)n2)n1C(C)C | 3.62 | 107 (≈ 33.4 µg/mL)
67 | Oc1ccc(-c2nc3ccccc3s2)cc1 | 4.1 | 7.9 (≈ 1.8 µg/mL)
68 | Cc1cc(C)cc(-c2[nH]c3ccc(C(C)(C)C(=O)N4C5CCC4CC5)cc3c2CCNCCCCc2ccncc2)c1 | 4.3 | 35.5 (≈ 20 µg/mL)
69 | NC(=O)COc1ccc(OCCNCC(O)COc2ccccc2)cc1 (stereo not drawn) | 0.63 | 661 (≈ 238 µg/mL)
70 | O=C(c1cc(Cc2n[nH]c(=O)c3ccccc23)ccc1F)N1CCN(C(=O)C2CCOC2)CC1 (stereo not drawn) | 0.8 | 380 (≈ 177 µg/mL)
71 | CC(C)Oc1cc(Oc2ccc(S(C)(=O)=O)cc2)cc(C(=O)Nc2nccs2)c1 | 3.61 | 5.2 (≈ 2.25 µg/mL)
72 | c1ccc(Nc2ccnc(Nc3ccccc3)n2)cc1 | 4.06 | 15.1 (≈ 3.96 µg/mL)
73 | Nc1nc(N)c2nc(-c3ccccc3)c(N)nc2n1 | 1.16 | 97.7 (≈ 24.7 µg/mL)
74 | CC1(C)N=C(N)N=C(N)N1c1ccc(Oc2ccc(Cl)cc2)c(Cl)c1 | 0.79 | 372 (≈ 141 µg/mL)
75 | CS(=O)(=O)c1ccc(C(=O)Nc2ccc(F)cc2)c[n+]1[O-] | 0.84 | 219 (≈ 67.9 µg/mL)
76 | Cc1cc(C)cc(-c2[nH]c3ccc(C(C)(C)C(=O)N4C5CCC4CC5)cc3c2[C@H](C)CNCCc2ccncc2)c1 | 4.35 | 148 (≈ 81.2 µg/mL)
77 | Cc1c[nH]c(/C=C2\C(=O)Nc3ccccc32)c1CCC(=O)O | 1.2 | 447 (≈ 132 µg/mL)
78 | COc1cc2ncnc(Nc3cc4ccccc4cn3)c2cc1OC | 3.9 | 0.3 (≈ 0.0997 µg/mL)
79 | CN(C)CC(O)COc1ccc(Nc2nccc(Nc3ccccc3C#N)n2)cc1 (stereo not drawn) | 1.2 | 1100 (≈ 444 µg/mL)
